How the values were obtained:
[1] = system: SK-OV-3; test: NCI 60 five-dose screen SK-OV-3; assay type: cell-based; conditions: Homo sapiens, five-dose; for CC50: read-out: LC50 (the source's name) (converted)
[2] = system: CCRF-CEM; test: NCI 60 five-dose screen CCRF-CEM; assay type: cell-based; conditions: Homo sapiens, five-dose; for CC50: read-out: LC50 (the source's name)
[3] = system: MOLT-4; test: NCI 60 five-dose screen MOLT-4; assay type: cell-based; conditions: Homo sapiens, five-dose; for CC50: read-out: LC50 (the source's name)
[4] = system: RPMI-8226; test: NCI 60 five-dose screen RPMI-8226; assay type: cell-based; conditions: Homo sapiens, five-dose; for CC50: read-out: LC50 (the source's name)
[5] = system: SNB-19; test: NCI 60 five-dose screen SNB-19; assay type: cell-based; conditions: Homo sapiens, five-dose; for CC50: read-out: LC50 (the source's name) (converted)
[6] = system: SR; test: NCI 60 five-dose screen SR; assay type: cell-based, human; conditions: five-dose; for GI50 / IC50 / CC50: Homo sapiens; for CC50: read-out: LC50 (the source's name)
[7] = system: MALME-3M; test: NCI 60 five-dose screen MALME-3M; assay type: cell-based; conditions: Homo sapiens, MALME-3M, five-dose; for CC50: read-out: LC50 (the source's name) (converted)
[8] = system: NCI-H522; test: NCI 60 five-dose screen NCI-H522; assay type: cell-based; conditions: Homo sapiens, five-dose; for CC50: read-out: LC50 (the source's name) (converted)
[9] = system: SK-MEL-2; test: NCI 60 five-dose screen SK-MEL-2; assay type: cell-based; conditions: Homo sapiens, five-dose; for CC50: read-out: LC50 (the source's name) (converted)
[10] = system: NCI-H23; test: NCI 60 five-dose screen NCI-H23; assay type: cell-based; conditions: Homo sapiens, five-dose; for CC50: read-out: LC50 (the source's name) (converted)
[11] = system: IGROV1; test: NCI 60 five-dose screen IGROV1; assay type: cell-based; conditions: Homo sapiens, IGROV-1, five-dose; for CC50: read-out: LC50 (the source's name) (converted)
[12] = system: CAKI-1; test: NCI 60 five-dose screen CAKI-1; assay type: cell-based; conditions: Homo sapiens, five-dose; for CC50: read-out: LC50 (the source's name) (converted)
[13] = system: PC-3; test: NCI 60 five-dose screen PC-3; assay type: cell-based; conditions: Homo sapiens, five-dose; for CC50: read-out: LC50 (the source's name) (converted)
[14] = system: OVCAR-4; test: NCI 60 five-dose screen OVCAR-4; assay type: cell-based; conditions: Homo sapiens, five-dose; for CC50: read-out: LC50 (the source's name) (converted)

## OC1CCC(Cn2c(C(F)(F)F)cc3c(Cl)ncnc32)CC1 (stereo not shown) [NUCC-0226689]
[1]
  GI50: 22.4 µM
  IC50: 67.6 µM
  IC (TGI): 100 µM
  CC50: ≥ 100 µM
[2]
  GI50: 5.62 µM
  IC50: 9.33 µM
  IC (TGI): 100 µM
  CC50: ≥ 100 µM
[3]
  GI50: 2.75 µM
  IC50: 4.47 µM
  IC (TGI): 8.13 µM
  CC50: ≥ 100 µM
[4]
  GI50: 33.9 µM
  IC50: 58.9 µM
  IC (TGI): 100 µM
  CC50: ≥ 100 µM
[5]
  GI50: 13.5 µM
  IC50: 24 µM
  IC (TGI): 26.9 µM
  CC50: 53.7 µM
[6]
  GI50: 2.14 µM
  IC50: 3.55 µM
  CC50: ≥ 100 µM
  TGI: 5.17 −log[M]
[7]
  GI50: 17.8 µM
  IC50: 85.1 µM
  IC (TGI): 64.6 µM
  CC50: ≥ 100 µM
[8]
  GI50: 1.55 µM
  IC50: 3.09 µM
  IC (TGI): 3.55 µM
  CC50: 8.13 µM
[9]
  GI50: 13.2 µM
  IC50: 28.8 µM
  IC (TGI): 28.2 µM
  CC50: 58.9 µM
[10]
  GI50: 3.09 µM
  IC50: 5.5 µM
  IC (TGI): 11.5 µM
  CC50: 45.7 µM
[11]
  GI50: 1.95 µM
  IC50: 3.47 µM
  IC (TGI): 4.07 µM
  CC50: 8.51 µM
[12]
  GI50: 16.6 µM
  IC50: 33.1 µM
  IC (TGI): 52.5 µM
  CC50: ≥ 100 µM
[13]
  GI50: 8.91 µM
  IC50: 15.5 µM
  IC (TGI): 36.3 µM
  CC50: ≥ 100 µM
[14]
  GI50: 17.8 µM
  IC50: 37.2 µM
  IC (TGI): 46.8 µM
  CC50: ≥ 100 µM

## FC(F)(F)CN1CCN(CCn2c(C(F)(F)F)cc3c(Cl)ncnc32)CC1 [NUCC-0226683]
[1]
  GI50: 16.2 µM
  IC50: 38.9 µM
  IC (TGI): 43.7 µM
  CC50: ≥ 100 µM
[2]
  GI50: 4.37 µM
  IC50: 7.41 µM
  IC (TGI): 100 µM
  CC50: ≥ 100 µM
[3]
  GI50: 2.4 µM
  IC50: 4.17 µM
  IC (TGI): 9.12 µM
  CC50: ≥ 100 µM
[4]
  GI50: 23.4 µM
  IC50: 39.8 µM
  IC (TGI): 77.6 µM
  CC50: ≥ 100 µM
[5]
  GI50: 13.2 µM
  IC50: 24 µM
  IC (TGI): 26.9 µM
  CC50: 53.7 µM
[6]
  GI50: 2.14 µM
  IC50: 3.55 µM
  CC50: ≥ 100 µM
[7]
  GI50: 14.5 µM
  IC50: 33.9 µM
  IC (TGI): 32.4 µM
  CC50: 70.8 µM
[8]
  GI50: 1.7 µM
  IC50: 3.24 µM
  IC (TGI): 3.55 µM
  CC50: 7.24 µM
[9]
  GI50: 15.8 µM
  IC50: 31.6 µM
  IC (TGI): 30.9 µM
  CC50: 60.3 µM
[10]
  GI50: 5.89 µM
  IC50: 14.8 µM
  IC (TGI): 26.9 µM
  CC50: ≥ 100 µM
[11]
  GI50: 1.78 µM
  IC50: 3.16 µM
  IC (TGI): 3.55 µM
  CC50: 7.08 µM
[12]
  GI50: 13.5 µM
  IC50: 25.7 µM
  IC (TGI): 30.9 µM
  CC50: 69.2 µM
[13]
  GI50: 3.55 µM
  IC50: 5.01 µM
  IC (TGI): 12 µM
  CC50: 57.5 µM
[14]
  GI50: 26.9 µM
  IC50: 89.1 µM
  IC (TGI): 100 µM
  CC50: ≥ 100 µM

## FC(F)(F)c1cc2c(Cl)ncnc2n1CCN1CCCCC1 [NUCC-0226679]
[1]
  GI50: 52.5 µM
  IC50: 100 µM
  IC (TGI): 100 µM
  CC50: ≥ 100 µM
[2]
  GI50: 11 µM
  IC50: 74.1 µM
  IC (TGI): 100 µM
  CC50: ≥ 100 µM
[3]
  GI50: 10.5 µM
  IC50: 25.1 µM
  IC (TGI): 55 µM
  CC50: ≥ 100 µM
[4]
  GI50: 31.6 µM
  IC50: 45.7 µM
  IC (TGI): 100 µM
  CC50: ≥ 100 µM
[5]
  GI50: 15.1 µM
  IC50: 28.2 µM
  IC (TGI): 30.9 µM
  CC50: 64.6 µM
[6]
  GI50: 3.31 µM
  IC50: 6.17 µM
  CC50: ≥ 100 µM
  TGI: 4.58 −log[M]
[7]
  GI50: 19.1 µM
  IC50: 63.1 µM
  IC (TGI): 55 µM
  CC50: ≥ 100 µM
[8]
  GI50: 1.7 µM
  IC50: 3.24 µM
  IC (TGI): 3.47 µM
[9]
  GI50: 16.6 µM
  IC50: 33.9 µM
  IC (TGI): 33.1 µM
  CC50: 66.1 µM
[10]
  GI50: 13.8 µM
  IC50: 28.2 µM
  IC (TGI): 38.9 µM
  CC50: ≥ 100 µM
[11]
  GI50: 2.95 µM
  IC50: 4.37 µM
  IC (TGI): 10.2 µM
  CC50: 38 µM
[12]
  GI50: 25.1 µM
  IC50: 47.9 µM
  IC (TGI): 100 µM
  CC50: ≥ 100 µM
[13]
  GI50: 15.1 µM
  IC50: 25.7 µM
  IC (TGI): 47.9 µM
  CC50: ≥ 100 µM
[14]
  GI50: 28.2 µM
  IC50: 70.8 µM
  IC (TGI): 100 µM
  CC50: ≥ 100 µM

— US20240109903A1, “SUBSTITUTED HETEROCYCLES FOR TREATING CANCER” (Northwestern University, priority 2022, published 2024)
